What was measured:
[1] = Toxicokinetics in SD rats; type: in vivo, Sprague-Dawley (SD) rats; details: for AUC(0-inf) / Cmax / Tmax / half-life: both sexes, Sprague-Dawley, rat, plasma, po, SD rats; for accumulation coefficient R: rats, after 28 days compared with d1
Procedure: The rats that were judged suitable for the subchronic toxicity study were randomly divided into four groups (10 rats/sex/group). The rats received the test sample by gavage once daily for 28 days. HZ1006 was administered to the rats at doses of 120, 60, 20 and 0 (control) mg/kg, and the dosage volume was 5 mL/kg. Half of the 80 rats (half male and half female) were selected randomly according to body weight and dissected at d28. The remaining rats were dissected at […]. The dogs' blood samples were obtained on the 1st day, the 14th day and the last day (d28) of dosage for plasma HZ1006 content analyses at 0 (1st day only), 1/6, 0.5, 1, 2, 4, 8, 12 and 24 h after dosing, and the blood samples of the rats were acquired on the 1st day and 28th day at the same time as those of the dogs, which were handled and analyzed according to the procedure reported by Zhang et al..

SD rats = test: Subchronic toxicity test in SD rats: organ weights; type: in vivo, Sprague-Dawley (SD) rats; details: for Adrenal gland absolute weight / Brain relative weight: female rats; for Kidney relative weight / Testis absolute weight: male rats
Procedure: The rats that were judged suitable for the subchronic toxicity study were randomly divided into four groups (10 rats/sex/group). The rats received the test sample by gavage once daily for 28 days. HZ1006 was administered to the rats at doses of 120, 60, 20 and 0 (control) mg/kg, and the dosage volume was 5 mL/kg. Half of the 80 rats (half male and half female) were selected randomly according to body weight and dissected at d28. The remaining rats were dissected at […]. After euthanasia, the following organs or tissues were isolated from the dogs and rats: skin, abnormal lesions, spleen, mammary glands, jejunum, pancreas, ileum, duodenum, stomach, colon, cecum, lymph nodes, mesenteric salivary glands, liver, submandibular lymph nodes, thymus, sternum, lungs, heart, esophagus, trachea, tongue, thyroid with parathyroid gland, sciatic nerve, aorta, femurs, skeletal muscle, pituitary gland, brain, kidneys, eyes, urinary bladder, adrenal glands, uterus, ovaries, testes, epididymis and prostate. The weights of the animal organs, such as the liver, spleen, heart, thymus, brain, lungs, adrenal glands, kidneys, uterus, ovaries, epididymis and testes, were tested using an electronic balance. The organs or tissues were fixed using 10% neutral buffered formalin and were then gradient dehydrated, embedded, sectioned, and stained with routine hematoxylin-eosin prior to histopathological observations.

[2] = 20 mg/kg/day, 20 mg/kg/day oral, 28 days
[3] = 20 mg/kg/day, 20 mg/kg/day oral, single
[4] = 60 mg/kg/day, 60 mg/kg/day oral, 28 days
[5] = 60 mg/kg/day, 60 mg/kg/day oral, single
[6] = 120 mg/kg/day, 120 mg/kg/day oral, 28 days
[7] = 120 mg/kg/day, 120 mg/kg/day oral, single
[8] = 20 mg/kg oral daily, d42 (recovery)
[9] = 60 mg/kg oral daily, d42 (recovery)
[10] = 120 mg/kg oral daily, d42 (recovery)

CCCCCCCNc1cc(/C=C/C(=O)NO)ccc1OCCN(CC)CC [HZ1006]
AUC(0-inf) [1, 2]: 32.7 ± 14.9 ng·h/mL | Cmax [1, 2]: 12.9 ± 9.5 ng/mL | Tmax [1, 2]: 0.34 ± 0.18 h | half-life [1, 2]: 7.32 ± 2.93 h | AUC(0-inf) [1, 3]: 8 ± 9.1 ng·h/mL | Cmax [1, 3]: 7.5 ± 7.2 ng/mL | Tmax [1, 3]: 0.86 ± 1.54 h | half-life [1, 3]: 0.6 ± 0.37 h | AUC(0-inf) [1, 4]: 114 ± 30.9 ng·h/mL | Cmax [1, 4]: 19.7 ± 3.3 ng/mL | Tmax [1, 4]: 0.28 ± 0.17 h | half-life [1, 4]: 7.57 ± 2.31 h | AUC(0-inf) [1, 5]: 39.1 ± 15 ng·h/mL | Cmax [1, 5]: 13.3 ± 5.5 ng/mL | Tmax [1, 5]: 0.5 h | half-life [1, 5]: 6.83 ± 2.69 h | AUC(0-inf) [1, 6]: 447 ± 282 ng·h/mL | Cmax [1, 6]: 57.5 ± 26.1 ng/mL | Tmax [1, 6]: 1.92 ± 3.07 h | half-life [1, 6]: 7.03 ± 1.9 h | AUC(0-inf) [1, 7]: 69.9 ± 22.9 ng·h/mL | Cmax [1, 7]: 20.4 ± 3.8 ng/mL | Tmax [1, 7]: 0.45 ± 0.13 h | half-life [1, 7]: 6.51 ± 1.62 h | accumulation coefficient R ([1]; 20 mg/kg/day oral): 16.8 ± 21.6 | accumulation coefficient R ([1]; 60 mg/kg/day oral): 3.2 ± 1.2 | accumulation coefficient R ([1]; 120 mg/kg/day oral): 6.3 ± 2.8 | Adrenal gland absolute weight (SD rats; 20 mg/kg oral daily, d28): 0.081 ± 0.005 g | Brain relative weight (SD rats; 20 mg/kg oral daily, d28): 0.728 ± 0.047 g/100 g | Adrenal gland absolute weight (SD rats; [8]): 0.072 ± 0.008 g | Brain relative weight (SD rats; [8]): 0.768 ± 0.020 g/100 g | Adrenal gland absolute weight (SD rats; 60 mg/kg oral daily, d28): 0.068 ± 0.003 g | Brain relative weight (SD rats; 60 mg/kg oral daily, d28): 0.799 ± 0.062 g/100 g | Adrenal gland absolute weight (SD rats; [9]): 0.071 ± 0.012 g | Brain relative weight (SD rats; [9]): 0.768 ± 0.068 g/100 g | Adrenal gland absolute weight (SD rats; 120 mg/kg oral daily, d28): 0.066 ± 0.008 g | Brain relative weight (SD rats; 120 mg/kg oral daily, d28): 0.834 ± 0.042 g/100 g | Adrenal gland absolute weight (SD rats; [10]): 0.069 ± 0.011 g | Brain relative weight (SD rats; [10]): 0.745 ± 0.089 g/100 g | Kidney relative weight (SD rats; 20 mg/kg oral daily, d28): 0.707 ± 0.024 g/100 g | Testis absolute weight (SD rats; 20 mg/kg oral daily, d28): 2.707 ± 0.090 g | Kidney relative weight (SD rats; [8]): 0.693 ± 0.033 g/100 g | Testis absolute weight (SD rats; [8]): 2.798 ± 0.112 g | Kidney relative weight (SD rats; 60 mg/kg oral daily, d28): 0.705 ± 0.039 g/100 g | Testis absolute weight (SD rats; 60 mg/kg oral daily, d28): 2.624 ± 0.170 g | Kidney relative weight (SD rats; [9]): 0.687 ± 0.020 g/100 g | Testis absolute weight (SD rats; [9]): 2.787 ± 0.097 g | Kidney relative weight (SD rats; 120 mg/kg oral daily, d28): 0.673 ± 0.023 g/100 g | Testis absolute weight (SD rats; 120 mg/kg oral daily, d28): 2.666 ± 0.115 g | Kidney relative weight (SD rats; [10]): 0.624 ± 0.053 g/100 g | Testis absolute weight (SD rats; [10]): 2.723 ± 0.161 g
